Measurements as given in patent US9539260B2, “Dihydro-benzo-oxazine and dihydro-pyrido-oxazine derivatives” (Novartis AG, priority 2012, dated 2017).

Columns and labels:
[1] = biological target: PI3K alpha (Homo sapiens (Human), UniProt P42336); assay: Enzymatic PI3K alpha isoform inhibition (lipid kinase activity, Kinase-Glo luminescence); assay type: biochemical; conditions: Enzymatic assay
Summary of the method: (§1)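 IC50s derive from 4-parameter logistic fits of % inhibition across 8 concentrations (usually 10 to 0.003 μM). Lipid kinase reaction: PI3K (10 nM) plus phosphatidylinositol (5 μg/mL) started with 2 μM ATP, stopped near 50% ATP depletion; leftover ATP quantified by Kinase-Glo luminescence.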

[2] = biological target: PI3K delta (Homo sapiens (Human), UniProt O00329); assay: Enzymatic PI3K delta isoform inhibition (lipid kinase activity, Kinase-Glo luminescence); assay type: biochemical; conditions: Enzymatic assay
Summary of the method: as §1

PI3K alpha, sequence (P42336 other isoform, or with tags, fused parts or gaps): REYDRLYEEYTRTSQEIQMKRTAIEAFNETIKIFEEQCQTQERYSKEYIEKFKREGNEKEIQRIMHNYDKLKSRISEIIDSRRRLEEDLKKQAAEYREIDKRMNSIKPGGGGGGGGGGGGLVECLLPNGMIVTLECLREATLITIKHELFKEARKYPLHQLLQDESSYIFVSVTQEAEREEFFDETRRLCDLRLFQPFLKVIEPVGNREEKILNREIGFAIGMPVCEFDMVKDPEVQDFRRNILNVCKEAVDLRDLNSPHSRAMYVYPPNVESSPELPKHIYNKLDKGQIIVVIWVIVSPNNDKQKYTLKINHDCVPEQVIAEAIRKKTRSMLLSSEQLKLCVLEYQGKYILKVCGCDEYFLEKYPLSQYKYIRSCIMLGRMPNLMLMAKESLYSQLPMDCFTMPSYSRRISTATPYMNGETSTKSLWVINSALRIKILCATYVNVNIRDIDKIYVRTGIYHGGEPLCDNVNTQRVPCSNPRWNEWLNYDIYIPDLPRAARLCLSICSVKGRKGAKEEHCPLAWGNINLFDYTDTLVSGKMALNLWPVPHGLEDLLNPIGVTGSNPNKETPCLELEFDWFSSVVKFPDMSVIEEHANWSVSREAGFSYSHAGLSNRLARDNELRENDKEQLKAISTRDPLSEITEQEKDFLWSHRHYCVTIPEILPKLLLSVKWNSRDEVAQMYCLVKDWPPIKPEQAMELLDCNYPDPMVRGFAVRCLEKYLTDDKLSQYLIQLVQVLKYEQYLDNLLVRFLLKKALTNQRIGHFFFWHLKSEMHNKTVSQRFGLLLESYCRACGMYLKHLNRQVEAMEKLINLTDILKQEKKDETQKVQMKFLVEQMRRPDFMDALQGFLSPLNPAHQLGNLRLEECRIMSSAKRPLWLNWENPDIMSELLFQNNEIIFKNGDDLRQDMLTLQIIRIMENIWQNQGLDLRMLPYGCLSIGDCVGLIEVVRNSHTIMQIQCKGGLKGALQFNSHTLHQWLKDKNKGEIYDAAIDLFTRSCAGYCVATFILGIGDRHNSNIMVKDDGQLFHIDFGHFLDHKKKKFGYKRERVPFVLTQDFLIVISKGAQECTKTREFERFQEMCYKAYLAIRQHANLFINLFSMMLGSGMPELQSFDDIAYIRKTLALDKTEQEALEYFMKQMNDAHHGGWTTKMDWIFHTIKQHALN
PI3K delta, sequence (O00329 other isoform, or with tags, fused parts or gaps linker GGGGGG): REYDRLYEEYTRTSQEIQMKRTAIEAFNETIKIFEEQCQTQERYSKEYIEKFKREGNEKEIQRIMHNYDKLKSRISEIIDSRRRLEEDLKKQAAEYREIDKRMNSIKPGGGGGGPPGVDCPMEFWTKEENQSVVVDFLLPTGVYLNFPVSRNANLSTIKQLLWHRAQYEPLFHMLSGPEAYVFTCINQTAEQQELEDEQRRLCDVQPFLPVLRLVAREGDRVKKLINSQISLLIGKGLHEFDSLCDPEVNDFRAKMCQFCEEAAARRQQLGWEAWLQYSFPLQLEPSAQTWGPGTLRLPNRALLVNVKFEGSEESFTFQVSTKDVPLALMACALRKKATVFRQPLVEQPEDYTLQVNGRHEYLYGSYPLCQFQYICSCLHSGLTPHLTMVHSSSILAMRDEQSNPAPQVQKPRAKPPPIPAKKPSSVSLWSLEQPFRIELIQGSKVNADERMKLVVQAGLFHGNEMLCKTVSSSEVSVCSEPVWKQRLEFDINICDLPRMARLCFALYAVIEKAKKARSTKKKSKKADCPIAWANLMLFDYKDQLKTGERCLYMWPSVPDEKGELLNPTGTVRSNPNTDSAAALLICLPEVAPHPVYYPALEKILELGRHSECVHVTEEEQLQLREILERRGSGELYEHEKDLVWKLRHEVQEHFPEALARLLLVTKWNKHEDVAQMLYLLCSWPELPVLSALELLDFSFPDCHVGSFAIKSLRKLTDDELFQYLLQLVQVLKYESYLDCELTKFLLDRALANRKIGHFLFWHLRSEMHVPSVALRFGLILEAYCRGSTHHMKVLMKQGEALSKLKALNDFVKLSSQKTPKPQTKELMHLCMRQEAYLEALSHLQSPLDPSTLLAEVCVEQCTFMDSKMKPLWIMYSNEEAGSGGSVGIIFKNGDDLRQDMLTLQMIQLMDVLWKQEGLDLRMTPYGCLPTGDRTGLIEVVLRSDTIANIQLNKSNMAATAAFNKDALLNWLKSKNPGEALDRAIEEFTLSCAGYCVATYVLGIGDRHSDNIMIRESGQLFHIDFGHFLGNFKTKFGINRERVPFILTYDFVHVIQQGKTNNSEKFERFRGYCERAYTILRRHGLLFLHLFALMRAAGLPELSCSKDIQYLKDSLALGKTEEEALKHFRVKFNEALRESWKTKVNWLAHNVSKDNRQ

SMILES	IC50 [1]	IC50 [2]
COc1ncc(N2CCOc3ccc(O[C@H]4CCN(C(=O)[C@H]5CC[C@H](O)CC5)C4)cc32)cc1F [Example B117, {(S)-3-[4-(5-Fluoro-6-methoxy-pyridin-3-yl)-3,4-dihydro-2H-benzo[1,4]oxazin-6-yloxy]-pyrrolidin-1-yl}-(4-hydroxy-cyclohexyl)-methanone]	1210 nM	8 nM
COc1ncc(N2CCOc3ccc(O[C@H]4CCN(C(=O)C5CCS(=O)(=O)CC5)C4)cc32)cc1F [Example B11, (1,1-Dioxo-hexahydro-1lambda*6*-thiopyran-4-yl)-{(S)-3-[4-(5-fluoro-6-methoxy-pyridin-3-yl)-3,4-dihydro-2H-benzo[1,4]oxazin-6-yloxy]-pyrrolidin-1-yl}-methanone]	823 nM	14 nM
COc1ncc(N2CCOc3ccc(O[C@H]4CCN(C(=O)C5CCS(=O)(=O)CC5)C4)cc32)cc1C(F)F [Example B119, {(S)-3-[4-(5-Difluoromethyl-6-methoxy-pyridin-3-yl)-3,4-dihydro-2H-benzo[1,4]oxazin-6-yloxy]-pyrrolidin-1-yl}-(1,1-dioxo-hexahydro-6-thiopyran-4-yl)-methanone]	124 nM	6 nM
COc1ncc(N2CCOc3ccc(O[C@H]4CCN(C(=O)c5ccn(C)c(=O)c5)C4)cc32)cc1C#N [Example D19, 2-Methoxy-5-{6-[(S)-1-(1-methyl-2-oxo-1,2-dihydro-pyridine-4-carbonyl)-pyrrolidin-3-yloxy]-2,3-dihydro-benzo[1,4]oxazin-4-yl}-nicotinonitrile]	273 nM	13 nM
COc1ncc(N2CCOc3ccc(O[C@H]4CCN(C(=O)C5CCS(=O)(=O)C5)C4)cc32)cc1Cl (single isomer, unassigned) [Example H13]	387 nM	9 nM
COc1ncc(N2CCOc3ccc(O[C@H]4CCN(C(=O)CS(C)(=O)=O)C4)cc32)cc1Cl [Example B110, 1-{(S)-3-[4-(5-Chloro-6-methoxy-pyridin-3-yl)-3,4-dihydro-2H-benzo[1,4]oxazin-6-yloxy]-pyrrolidin-1-yl}-2-methanesulfonyl-ethanone]	148 nM	3 nM
Cc1cc(N2CCOc3ccc(O[C@H]4CCN(C(=O)C5COCCO5)C4)cc32)cnc1S(C)(=O)=O (stereo partly drawn) [Example B36, [1,4]Dioxan-2-yl-{(S)-3-[4-(6-methanesulfonyl-5-methyl-pyridin-3-yl)-3,4-dihydro-2H-benzo[1,4]oxazin-6-yloxy]-pyrrolidin-1-yl}-methanone]	801 nM	< 3 nM
COc1ncc(N2CCOc3ccc(O[C@H]4CCN(C(=O)C5COCCO5)C4)cc32)cc1F (single isomer, unassigned) [Example H15]	724 nM	8 nM
Cc1cc(N2CCOc3ccc(O[C@H]4CCN(C(=O)C5CCOCC5)C4)cc32)ccn1 [Example A19, {(S)-3-[4-(2-Methyl-pyridin-4-yl)-3,4-dihydro-2H-benzo[1,4]oxazin-6-yloxy]-pyrrolidin-1-yl}-(tetrahydro-pyran-4-yl)-methanone]	7550 nM	380 nM
CNc1cc(N2CCOc3ccc(O[C@H]4CCN(C(=O)C5CCOCC5)C4)cc32)cnc1S(C)(=O)=O [Example B77, {(S)-3-[4-(6-Methanesulfonyl-5-methylamino-pyridin-3-yl)-3,4-dihydro-2H-benzo[1,4]oxazin-6-yloxy]-pyrrolidin-1-yl}-(tetrahydro-pyran-4-yl)-methanone]	897 nM	32 nM
COc1ncc(N2CCOc3ccc(O[C@H]4CCN(C(=O)C5CCS(=O)(=O)C5)C4)cc32)cc1C (stereo partly drawn) [Example B13, (1,1-Dioxo-tetrahydro-1lambda*6*-thiophen-3-yl)-{(S)-3-[4-(6-methoxy-5-methyl-pyridin-3-yl)-3,4-dihydro-2H-benzo[1,4]oxazin-6-yloxy]-pyrrolidin-1-yl}-methanone]	862 nM	62 nM
COCC(=O)N1CC[C@H](Oc2ccc3c(c2)N(c2cnc(S(C)(=O)=O)c(C)c2)CCO3)C1 [Example B32, 1-{(S)-3-[4-(6-Methanesulfonyl-5-methyl-pyridin-3-yl)-3,4-dihydro-2H-benzo[1,4]oxazin-6-yloxy]-pyrrolidin-1-yl}-2-methoxy-ethanone]	369 nM	36 nM
Cc1cc(N2CCOc3ccc(O[C@H]4CCN(C(=O)C5CCOCC5)C4)c(F)c32)cnc1S(C)(=O)=O [Example I3]	836 nM	6 nM
Cc1cc(N2CCOc3ccc(O[C@H]4CCN(C(=O)C5CCOC(C)(C)C5)C4)cc32)cnc1S(C)(=O)=O (stereo partly drawn) [Example B26, (2,2-Dimethyl-tetrahydro-pyran-4-yl)-{(S)-3-[4-(6-methanesulfonyl-5-methyl-pyridin-3-yl)-3,4-dihydro-2H-benzo[1,4]oxazin-6-yloxy]-pyrrolidin-1-yl}-methanone]	281 nM	< 9 nM
COc1ncc(N2CCOc3cnc(O[C@H]4CCN(C(=O)c5cn(C)cn5)C4)cc32)cc1C#N [Example F5, 2-Methoxy-5-{7-[(S)-1-(1-methyl-1H-imidazole-4-carbonyl)-pyrrolidin-3-yloxy]-2,3-dihydro-pyrido[3,4-b][1,4]oxazin-1-yl}-nicotinonitrile]	444 nM	25 nM
COc1ncc(N2CCOc3ccc(O[C@H]4CCN(C(=O)c5cnccn5)C4)cc32)cc1C#N [Example C15, 2-Methoxy-5-{6-[(S)-1-(pyrazine-2-carbonyl)-pyrrolidin-3-yloxy]-2,3-dihydro-benzo[1,4]oxazin-4-yl}-nicotinonitrile]	383 nM	17 nM
CCC(=O)N1CC[C@H](Oc2ccc3c(c2)N(c2ccc([S+]([O-])CC)nc2)CCO3)C1 (stereo partly drawn) [Example B121, 1-{(S)-3-[4-(6-Ethanesulfinyl-pyridin-3-yl)-3,4-dihydro-2H-benzo[1,4]oxazin-6-yloxy]-pyrrolidin-1-yl}-propan-1-one]	3360 nM	75 nM
COc1ncc(N2CCOc3ccc(O[C@H]4CCN(C(=O)C5CCS(=O)(=O)C5)C4)cc32)cc1F (single isomer, unassigned) [Example H12]	530 nM	7 nM
COc1ncc(N2CC(C)Oc3ccc(O[C@H]4CCN(C(=O)C5CCOCC5)C4)cc32)cc1C#N (stereo partly drawn) [Example O1, 2-Methoxy-5-{2-methyl-6-[(S)-1-(tetrahydro-pyran-4-carbonyl)-pyrrolidin-3-yloxy]-2,3-dihydro-benzo[1,4]oxazin-4-yl}-nicotinonitrile]	4570 nM	53 nM
COc1ncc(N2CCOc3cnc(O[C@H]4CCN(C(=O)c5cn(C)cn5)C4)cc32)cc1C(F)(F)F [Example E7, {(S)-3-[1-(6-Methoxy-5-trifluoromethyl-pyridin-3-yl)-2,3-dihydro-1H-pyrido[3,4-b][1,4]oxazin-7-yloxy]-pyrrolidin-1-yl}-(1-methyl-1H-imidazol-4-yl)-methanone]	133 nM	22 nM
COc1ncc(N2CCOc3ccc(O[C@H]4CCN(CC5CCN(C)CC5)C4)cc32)cc1C#N [P, 2-Methoxy-5-{6-[(S)-1-(1-methyl-piperidin-4-ylmethyl)-pyrrolidin-3-yloxy]-2,3-dihydro-benzo[1,4]oxazin-4-yl}-nicotinonitrile]	954 nM	72 nM
Cc1cc(N2CCOc3ccc(O[C@H]4CCN(C(=O)C5CCS(=O)(=O)C5)C4)cc32)cnc1S(C)(=O)=O (some centres unmarked) [Example H2]	913 nM	13 nM
